According to patent US12624368B2 (priority 2018, dated 2026):
≈ marks a conversion by molar mass, not a printed value. Entries after “also recorded” stand apart in the source; their conditions may differ. Like-named read-outs stand apart in the source and are kept apart here. Where a SMILES comes first, the peptide text is derived from it.

What was measured:
[1] = test system: endosomal acidification in MDCK cells; format: cell-based, canine
293T cells = format: cell-based, human
A(H1N1)pdm09 virus [2] = format: cell-based, influenza A virus A(H1N1)pdm09
in vitro [3] = details: human
in vitro [4] = details: dog
[5] = test system: A(H7N7) and A(H1N1)pdm09 virus; format: cell-based, influenza A virus; details: 0-8,000 nM
A(H1N1)pdm09 virus [6] = test system: A(H1N1)pdm09 virus; parameters: species or system BALB/c mice; details: in vivo
A(H7N7) virus [7] = test system: A(H7N7) virus; parameters: species or system BALB/c mice; details: mouse, in vivo
endosomal acidification = details: cited from earlier work
A(H7N7) virus [8] = details: 1 h
A(H1N1)pdm09 virus [9] = details: 1 h
mouse lungs = details: in vivo
[10] = test system: HA mediated membrane fusion; details: pH 5
[11] = MDCK cells, P1 25.0 μg ml^−1, TAT-P1 3.1 μg ml^−1, bafilomycin A1 100.0 nM, PA1 25.0 μg ml^−1

Compound: Bafilomycin A1 [reference compound]
- endosomal acidification [1, 11]: prevented endosomal acidification
- effect of added agent on transfection efficiency of TAT-P1/pLuc (293T cells): increased
- viral RNP release into the nuclei (A(H1N1)pdm09 virus [2]): blocked viral RNP release into the nuclei

Compound: CC[C@H](C)[C@H](NC(=O)[C@H](CCCNC(=N)N)NC(=O)[C@H](CS)NC(=O)[C@H](CCCNC(=N)N)NC(=O)[C@@H](NC(=O)[C@H](CCCNC(=N)N)NC(=O)[C@H](Cc1ccccc1)NC(=O)[C@H](CCCNC(=N)N)NC(=O)CNC(=O)[C@H](CS)NC(=O)[C@H](CC(C)C)NC(=O)[C@H](CCC(N)=O)NC(=O)[C@H](CCCNC(=N)N)NC(=O)[C@H](Cc1ccccc1)NC(=O)[C@H](CO)NC(=O)[C@@H]1CCCN1C(=O)[C@H](CS)NC(=O)[C@@H]1CCCN1C(=O)[C@H](CCCNC(=N)N)NC(=O)[C@H](Cc1c[nH]c2ccccc12)NC(=O)[C@H](CS)NC(=O)[C@H](CCCNC(=N)N)NC(=O)[C@H](CCCNC(=N)N)NC(=O)[C@H](CCCNC(=N)N)NC(=O)[C@H](CCC(N)=O)NC(=O)[C@H](CCCNC(=N)N)NC(=O)[C@H](CCCNC(=N)N)NC(=O)[C@H](CCCCN)NC(=O)[C@H](CCCCN)NC(=O)[C@H](CCCNC(=N)N)NC(=O)CNC(=O)[C@@H](N)Cc1ccc(O)cc1)[C@@H](C)CC)C(=O)N[C@@H](CCCNC(=N)N)C(=O)O [TAT-P3] (H-YGRKKRRQRRRCWRPCPSFRQLCGRFRIRCRIR-OH; N-terminus and C-terminus assumed)
- CC50 (in vitro [3]): 205 µg/mL (≈ 47.1 µM)
- CC50 (in vitro [4]): 207 µg/mL (≈ 47.6 µM)

Compound: CC(=O)N[C@H]1[C@H]([C@H](O)[C@H](O)CO)OC(C(=O)O)=C[C@@H]1N=C(N)N [zanamivir]
- susceptibility of A(H7N7) virus to zanamivir compared with A(H1N1)pdm09 virus [5]: reduced susceptibility; also recorded: reduced sensitivity of A(H7N7) virus to zanamivir
- viral titers in mouse lungs (A(H1N1)pdm09 virus [6]): significantly reduced
- IL-6 expression in mice (A(H1N1)pdm09 virus [6]; mouse): significantly reduced
- body weight loss (A(H1N1)pdm09 virus [6]; mouse): significantly reduced
- survival (A(H1N1)pdm09 virus [6]; mouse): 90%
- body weight loss (A(H7N7) virus [7]): significantly less body weight loss
- survival (A(H7N7) virus [7]): 40%

Compound: CCN(CC)CCCC(C)Nc1ccnc2cc(Cl)ccc12 (stereo not drawn) [chloroquine]
- effective concentrations for inhibiting endosomal acidification (endosomal acidification): ~100 µM

Compound: N=C(N)NCCC[C@H](NC(=O)[C@H](CCCNC(=N)N)NC(=O)[C@H](CCCNC(=N)N)NC(=O)[C@H](CCC(N)=O)NC(=O)[C@H](CCCNC(=N)N)NC(=O)[C@H](CCCNC(=N)N)NC(=O)[C@H](CCCCN)NC(=O)[C@H](CCCCN)NC(=O)[C@H](CCCNC(=N)N)NC(=O)CNC(=O)[C@@H](N)Cc1ccc(O)cc1)C(=O)O [TAT, YGRKKRRQRRR (SEQ ID NO: 7), reference compound]
- IC50 (H7N7) (A(H7N7) virus [8]): >50.0 µg/mL
- CC50 (in vitro [3]): > 400 µg/mL
- IC50 (H1N1) (A(H1N1)pdm09 virus [9]): >50.0 µg/mL
- CC50 (in vitro [4]): > 400 µg/mL

Compound: NGAICWGPCPTAFRQIG NCGHFKVRCCKIRDED (SEQ ID NO: 9) [PA1, reference compound]
- endosomal acidification [1]: did not prevent endosomal acidification
- effect of added peptide on transfection efficiency of TAT-P1/pLuc in mouse lungs (mouse lungs): did not improve the transfection efficiency
- effect of added agent on transfection efficiency of TAT-P1/pLuc (293T cells): did not improve the transfection efficiency

Compound: CC[C@H](C)[C@H](NC(=O)[C@H](CCCNC(=N)N)NC(=O)[C@H](CS)NC(=O)[C@H](CS)NC(=O)[C@H](CCCNC(=N)N)NC(=O)[C@@H](NC(=O)[C@H](CCCNC(=N)N)NC(=O)[C@H](Cc1ccccc1)NC(=O)[C@H](CCCNC(=N)N)NC(=O)CNC(=O)[C@H](CS)NC(=O)[C@H](CC(N)=O)NC(=O)[C@H](CCCNC(=N)N)NC(=O)[C@H](CCCCN)NC(=O)[C@H](CCCNC(=N)N)NC(=O)[C@H](Cc1ccccc1)NC(=O)[C@H](C)NC(=O)[C@H](CCCNC(=N)N)NC(=O)[C@@H]1CCCN1C(=O)[C@H](CS)NC(=O)[C@@H]1CCCN1C(=O)[C@H](CCCNC(=N)N)NC(=O)[C@H](Cc1c[nH]c2ccccc12)NC(=O)[C@H](CS)NC(=O)[C@H](CCCNC(=N)N)NC(=O)[C@H](CCCNC(=N)N)NC(=O)[C@H](CCCNC(=N)N)NC(=O)[C@H](CCC(N)=O)NC(=O)[C@H](CCCNC(=N)N)NC(=O)[C@H](CCCNC(=N)N)NC(=O)[C@H](CCCCN)NC(=O)[C@H](CCCCN)NC(=O)[C@H](CCCNC(=N)N)NC(=O)CNC(=O)[C@@H](N)Cc1ccc(O)cc1)[C@@H](C)CC)C(=O)N[C@@H](CCCNC(=N)N)C(=O)O [TAT-P2] (H-YGRKKRRQRRRCWRPCPRAFRKRNCGRFRIRCCRIR-OH; N-terminus and C-terminus assumed)
- CC50 (in vitro [3]): 154 µg/mL (≈ 32.4 µM)
- CC50 (in vitro [4]): 160 µg/mL (≈ 33.7 µM)

Compound: CC[C@H](C)[C@H](NC(=O)[C@H](CCC(N)=O)NC(=O)[C@H](CCCNC(=N)N)NC(=O)[C@H](Cc1ccccc1)NC(=O)[C@H](C)NC(=O)[C@@H](NC(=O)[C@@H]1CCCN1C(=O)[C@H](CS)NC(=O)[C@@H]1CCCN1C(=O)CNC(=O)[C@H](Cc1c[nH]c2ccccc12)NC(=O)[C@H](CS)NC(=O)[C@H](CCCNC(=N)N)NC(=O)[C@H](CCCNC(=N)N)NC(=O)[C@H](CCCNC(=N)N)NC(=O)[C@H](CCC(N)=O)NC(=O)[C@H](CCCNC(=N)N)NC(=O)[C@H](CCCNC(=N)N)NC(=O)[C@H](CCCCN)NC(=O)[C@H](CCCCN)NC(=O)[C@H](CCCNC(=N)N)NC(=O)CNC(=O)[C@@H](N)Cc1ccc(O)cc1)[C@@H](C)O)C(=O)NCC(=O)N[C@@H](CC(N)=O)C(=O)N[C@@H](CS)C(=O)NCC(=O)N[C@@H](CCCNC(=N)N)C(=O)N[C@@H](Cc1ccccc1)C(=O)N[C@@H](CCCNC(=N)N)C(=O)N[C@H](C(=O)N[C@@H](CCCNC(=N)N)C(=O)N[C@@H](CS)C(=O)N[C@@H](CS)C(=O)N[C@@H](CCCNC(=N)N)C(=O)N[C@H](C(=O)N[C@@H](CCCNC(=N)N)C(=O)O)[C@@H](C)CC)C(C)C [TAT-P1] (H-YGRKKRRQRRRCWGPCPTAFRQIGNCGRFRVRCCRIR-OH)
- endosomal acidification [1, 11]: prevented endosomal acidification
- HA-mediated membrane fusion [10]: did not inhibit HA-mediated membrane fusion
- CC50 (in vitro [3]): 226 µg/mL (≈ 49.1 µM)
- viral RNP release into the nuclei (A(H1N1)pdm09 virus [2]): blocked viral RNP release into the nuclei
- survival (A(H7N7) virus [7]): 30%
- CC50 (in vitro [4]): 300 µg/mL (≈ 65.2 µM)
- viral replication in 293T cells (viral titers by plaque assay) (H7N7 virus): could significantly inhibit viral replication

Compound: CC[C@H](C)[C@H](NC(=O)[C@H](CCC(N)=O)NC(=O)[C@H](CCCNC(=N)N)NC(=O)[C@H](Cc1ccccc1)NC(=O)[C@H](C)NC(=O)[C@@H](NC(=O)[C@@H]1CCCN1C(=O)[C@H](CS)NC(=O)[C@@H]1CCCN1C(=O)CNC(=O)[C@H](Cc1c[nH]c2ccccc12)NC(=O)[C@@H](N)CS)[C@@H](C)O)C(=O)NCC(=O)N[C@@H](CC(N)=O)C(=O)N[C@@H](CS)C(=O)NCC(=O)N[C@@H](CCCNC(=N)N)C(=O)N[C@@H](Cc1ccccc1)C(=O)N[C@@H](CCCNC(=N)N)C(=O)N[C@H](C(=O)N[C@@H](CCCNC(=N)N)C(=O)N[C@@H](CS)C(=O)N[C@@H](CS)C(=O)N[C@@H](CCCNC(=N)N)C(=O)N[C@H](C(=O)N[C@@H](CCCNC(=N)N)C(=O)O)[C@@H](C)CC)C(C)C [P1] (H-CWGPCPTAFRQIGNCGRFRVRCCRIR-OH)
- endosomal acidification [1]: prevented endosomal acidification
- HA-mediated membrane fusion [10]: did not inhibit HA-mediated membrane fusion
- IC50 (H7N7) (A(H7N7) virus [8]): 1.56 µg/mL (≈ 0.51 µM)
- CC50 (in vitro [3]): > 400 µg/mL
- viral RNP release into the nuclei (A(H1N1)pdm09 virus [2]): blocked viral RNP release into the nuclei
- CC50 (in vitro [4]): > 400 µg/mL
- viral replication in 293T cells (viral titers by plaque assay) (H7N7 virus): could significantly inhibit viral replication
